Assay results reported in paper PMC12555100, “Dextromethorphan Versus Dextrorphan: A Quantitative Comparison of Antitussive Potency Following Separate Administration of Metabolite” (Journal of Clinical Pharmacology, 2025).
≈ marks a conversion by molar mass, not a printed value. Where “and” joins values, the source holds several entries; their conditions need not be identical. Identical values can stand only once. Like-named read-outs stand apart in the source and are kept apart here.

Assays:
[1] = test system: cough response to citric acid challenge; assay: PK-PD effect compartment link model of cough response; format: in vivo, human; settings: for Between‐subject variability of ke0: PKPD model
Experimental: Pharmacokinetic/pharmacodynamic analysis (PKPD) of DEX and DOR was conducted using non‐linear mixed effects modelling with Monolix software, 2024R1 (Lixoft SAS, Antony, France). The analysis followed a sequential approach, where the PK parameters of both compounds were estimated initially, and then these were used alongside the cough data to build the PK/PD model. The model components are described below:
The cough response (number of coughs) of the placebo arm of the study was described by the following equation that has been reported in a previous study[27] with some minor modifications: EPlacebo=Baselinecough×scale×k×e^−k×t in which EPlacebo is the placebo effect, BaselineCough is the number of coughs at time (t) zero (before administration of any of the drugs or placebo), scale is the constant of the magnitude of the cough response, and k is the first‐order rate constant for nonlinear suppression of the cough response and return to the baseline. The distribution of all parameters was assumed to be log normal. A constant error model was used to describe intra‐individual variability.
An effect compartment model in which ke0 (DEX) and ke0 (DOR) are the effect‐site equilibration rate constants for DEX and DOR, respectively, was used to link the plasma concentrations of DEX and DOR to the combined effect of the two moieties at the same receptor. This combined effect is described by the following equation: E=EPlacebo×1−Imax×CeDEX/IC50+CeDOR×Pot/IC50^n/1+CeDEX/IC50+CeDOR×Pot/IC50^n in which I max is the maximum antitussive effect, IC50 the concentration of drugs that results in half of the maximum effect, Pot is the relative potency of DOR to DEX and CeDEX and CeDOR are the effect compartment concentrations of DEX and DOR, respectively.[23] Log‐normal distribution model was used to describe the inter‐individual variability of the model parameters and intra‐individual variability was described by a constant error model.

guinea pig brain slices = test system: guinea pig brain slices; design: method as in PMID 2897648; settings: cited from earlier work
[2] = Plasma concentrations of DEX and unconjugated DOR (HPLC), model-independent pharmacokinetics; format: in vivo, human; settings: for 24‐h plasma concentration: almost all subjects (except in 2 cases); for AUC / Cmax / Tmax: both sexes, human, oral
Description: The clinical trial has been performed according to the Declaration of Helsinki and was approved by the North Sheffield Research and Ethics Committee (approval number NS98/183). All participants enrolled into the clinical trial have given informed consent. Data were collected from twenty‐three healthy non‐smoker volunteers (12 male) aged 19‐51 years who took part in a double‐blind randomized placebo controlled cross‐over study. […] The exclusion criteria were respiratory tract infection or acute cough within the last 4 weeks, receiving any medication within previous 2 weeks, and any medical condition which may interfere with the study. Preceding the visit day, the volunteer was asked to fast for 8 h, abstain from alcohol, and abstain from caffeinated drinks throughout the study day. Written informed consent was obtained from all volunteers. The study was approved by the […] Research and Ethics Committee. Subjects' cough response to citric acid challenge test was studied on three separate occasions (separated at least 7 days apart) following administration of (i) placebo; (ii) 40.5 mg dextromethorphan hydrobromide; (iii) 44.6 mg of dextrorphan‐D‐tartrate. The order of treatments (placebo, DEX, and DOR) was randomized across participants using a balanced Latin square design to ensure equal distribution of sequence effects. Blood samples for PK analysis were taken periodically (at 0, 1, 2, 3, 4, 5, 6, 8, 10, 12, and 24 h post administration of DEX and DOR).
Plasma concentrations of DEX and unconjugated DOR were determined using high‐performance liquid chromatography with fluorometric detection according to the method of Chen et al.[25] The intra‐assay coefficient of variation for these analyses at a concentration of 2.5 ng/mL ranged from 6% to 13%. The lower limits of quantification were determined to be 0.3 ng/mL for DOR and 0.5 ng/mL for DEX.
The percent of change in cough number relative to the baseline (t = 0) was plotted against time and the maximum reduction in cough response (Emax) and its […] (TEmax) were determined. The area under the percent of reduction in cough number against time between 0 until 24 h (AUEC0‐24 h) was calculated using the trapezoidal rule. The correlation between AUEC0‐24 h and area under plasma concentration time between zero and 24 h (AUC0‐24 h) of DEX, (endogenously) formed DOR and directly administered DOR was statistically examined using Spearman rank correlation test. The Friedman test (followed by Dunn's multiple comparison) was used to compare the AUC values of DEX and DOR, as well as the AUEC values, between the different arms of the study.

[3] = fixed in the model for DEX and directly administered (preformed) DOR, cited from earlier work
Caco‐2 monolayers = settings: cited from earlier work
[4] = animal study; cited from earlier work
[5] = test system: antitussive effect (cough); design: method as in PMID 12848776; settings: cited from earlier work
[6] = cited from earlier work
[7] = plasma, mean, plasma, the administered compound itself (40.5 mg DEX HBr or 44.6 mg DOR-D-tartrate), unconjugated DOR, read-out: AUC0‐24 h, mean
[8] = plasma, mean, plasma, the administered compound itself (40.5 mg DEX HBr or 44.6 mg DOR-D-tartrate), unconjugated DOR, read-out: Cmax, mean
[9] = plasma, mean, plasma, the administered compound itself (40.5 mg DEX HBr or 44.6 mg DOR-D-tartrate), unconjugated DOR, read-out: Tmax, mean
[10] = plasma, median, plasma, the administered compound itself, read-out: AUC0‐24 h, median
[11] = plasma, median, plasma, the administered compound itself, read-out: Tmax, median
[12] = population estimate, common parameter of the combined DEX+DOR effect model

SMILES | Between‐subject variability of ke0 [1] [CV%] | ke0, transfer rate constant from the central to the effect compartment ([1]; population estimate) [h⁻¹] | Antiepileptic activity (guinea pig brain slices) | 24‐h plasma concentration [2] | AUC [2, 7] [ng·h/mL] | Cmax [2, 8] [ng/mL] | Tmax [2, 9] [h] | AUC [2, 10] [ng·h/mL] | Tmax [2, 11] [h] | ka, first-order absorption rate constant (fixed) [3] | Permeability, DEX compared with DOR (Caco‐2 monolayers) | further results
COc1ccc2c(c1)[C@]13CCCC[C@@H]1[C@H](C2)N(C)CC3 [DEX, dextromethorphan] | 176 | 0.08 | possess antiepileptic activity | below the limit of quantitation | 26.7 | 3.5 | 1.8 | 16.7 | 1 | 2.6 h^−1 and 2.6 (fixed) h^−1 | comparable permeability | Cmax, median ([2]; median, plasma, the administered compound itself): 2.2 ng/mL
CN1CC[C@@]23CCCC[C@@H]2[C@@H]1Cc1ccc(O)cc13 [DOR, dextrorphan] | 171 | 0.02 | possess antiepileptic activity | below the limit of quantitation | 17.4 | 4.1 | 1.1 | 18.9 | 1 | 2.6 (fixed) h^−1 | comparable permeability | Maximum cough inhibition (Imax) ([1]; model-based estimate, as percent): 23%; Relative potency of DOR to DEX ([1]; population estimate, as fraction): 0.26; Imax, the maximum antitussive effect (fraction of the baseline) [1, 12]: 0.23; N, Hill coefficient [1, 12]: 2.8; Antitussive activity [4]: good antitussive activity comparable to that of DEX; Tolerability compared with DEX [4]: better tolerability; Toxicity compared with DEX [4]: lower toxicity; Relative potency of DOR compared to DEX ([5]; modelling of quinidine interaction study, no separate DOR arm): 38%; IC50 ([5]; total concentration of DOR (conjugated with glucuronic acid and unconjugated)): 3.2 ng/mL (≈ 0.0124 µM); Cmax and Tmax of formed DOR compared with direct administration of DOR ([2]; Friedman and Dunn's tests): not statistically different; AUC0−24 h of formed DOR (from DEX metabolism) compared with direct administration of DOR ([2]; Friedman and Dunn's tests, P‐value = .003, higher molar dose of DOR than of DEX): significantly higher; Cmax ([2]; plasma, median, plasma, the administered compound itself, read-out: Cmax, median): 3.8 ng/mL; Plasma concentration of DOR relative to DEX after administration of DEX ([2]; majority of measurement times): up to twofold higher; ka, first-order absorption rate constant (fixed) ([3]; listed as preformed DOR): 2.6 h⁻¹; Water solubility [6]: > 10000 µg/mL
